Several values for one entry are separate records, joined by “and”; a condition that tells them apart may be missing. Identical values can stand only once. Like-named read-outs stand apart in the source and are kept apart here.
Legend:
MDM2 = target: T1, MDM2 (Homo sapiens, UniProt Q00987); test: Inhibition test of MDM2-P53 (GST-MDM2, Biotin-P53, Anti-GST-Tb, SA-XL665); format: binding
T1 construct: made in house
Procedure, shortened: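 Binding was measured by TR-FRET with GST-MDM2 at 4 nM final in PBS with 0.1% BSA, 5 mM DTT and 1 mM AEBSF. Compounds were tested as twelve-point 5-fold dilutions and incubated with the detection mix for 90 min at 25 °C with shaking before plate-reader reading and curve fitting.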

[1] = system: human osteosarcoma cell line SJSA-1; test: Inhibition of proliferation of human osteosarcoma cell line SJSA-1 (DAPI staining, In Cell Analyzer); conditions: Homo sapiens, SJSA-1, 72 h, read-out: IC50 (nM), inhibitory activity on proliferation of human osteosarcoma cell line SJSA-1, SJSA-1, incubated 72 h
Protocol: 2.2 Experiment Preparation:
2.2.1 Preparation of a culture medium for human osteosarcoma cell line SJSA-1: RPMI1640+10% FBS+1% penicillin/streptomycin
2.2.2 Preparation of a test compound solution:
a. the test compound solution with a certain concentration was taken, and diluted with the culture medium to obtain a compound solution with a final concentration of 20 μM;
b. 200 μL of a culture medium containing 0.2% DMSO (dimethyl sulfoxide) was added into H2-H10 of a 96-well plate; 300 μl of the above solution was added into H1; and
c. 100 μL was taken out from well H1, added into H2, and mixed well; then 100 μl of the resultant solution was taken and added into H3, and dilution was carried out in sequence until H9 to obtain the 3-fold serial dilution of the test compound.
2.3 Experimental Process:
2.3.1 SJSA-1 cells were inoculated into a 96-well cell plate with black transparent bottom at 4000 cells/100 μl/well, and cultured overnight at 37° C.;
2.3.3 Fixation: the cell plate was taken out, the culture medium was removed, and 50 μL of 4% paraformaldehyde solution was added to each well to fix for 10 min;
2.3.4 50 μl of 0.1 M glycine was added to neutralize for 10 min;
2.3.5 Washing was performed with 1×PBS (phosphate buffer solution pH7.2) twice;
2.3.6 Permeabilization: 50 μL of 0.2% TritonX-100 (Triton) was added per well, and permeabilization was carried out at room temperature for 10 min;
2.3.7 Washing was performed with 1×PBS (phosphate buffer solution pH7.2) twice;
2.3.9 Washing was performed with 1×PBS (phosphate buffer solution pH7.2) for three times; and
2.3.10 Scanning and analysis were performed by In cell analyzer.
The inhibition rate of each compound at each concentration point was calculated according to the following formula, and curve fitting was performed by GraphPad Prism 6.0 software to obtain the IC50 value.

[2] = Pharmacokinetics in ICR mice after intravenous and intragastric administration; format: in vivo; conditions: for MRT last: read-out: MRT(0-t); for MRT inf: read-out: MRT(0-∞); for Vd: read-out: Vz; for bioavailability: PO 5 mg/kg vs IV 2 mg/kg, from mean values, read-out: F* (bioavailability)
Procedure, shortened: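 Single-dose mouse PK study: i.v. 2 mg/kg and intragastric 5 mg/kg to fasted male ICR mice, three animals per arm. Exposure and disposition parameters (Cmax, Tmax, AUC, t1/2, F, CL, Vz) came from LC-MS/MS plasma levels.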

[3] = ICR mice, IV 2 mg/kg, individual animal, 2 mg/kg
[4] = ICR mice, PO 5 mg/kg, individual animal, 5 mg/kg
[5] = male, ICR, mouse, plasma, iv, 2 mg/kg, ICR mice, IV 2 mg/kg, individual animal
[6] = male, ICR, mouse, plasma, iv, 2 mg/kg, ICR mice, IV 2 mg/kg, individual animal, read-out: AUC(0-t)
[7] = male, ICR, mouse, plasma, iv, 2 mg/kg, ICR mice, IV 2 mg/kg, individual animal, read-out: Cmax
[8] = male, ICR, mouse, plasma, iv, 2 mg/kg, ICR mice, IV 2 mg/kg, individual animal, read-out: Tmax
[9] = male, ICR, mouse, plasma, iv, 2 mg/kg, ICR mice, IV 2 mg/kg, individual animal, read-out: t1/2 (converted)
[10] = male, ICR, mouse, plasma, iv, 2 mg/kg, ICR mice, IV 2 mg/kg, mean of 3 animals
[11] = male, ICR, mouse, plasma, iv, 2 mg/kg, ICR mice, IV 2 mg/kg, mean of 3 animals, read-out: AUC(0-t)
[12] = male, ICR, mouse, plasma, iv, 2 mg/kg, ICR mice, IV 2 mg/kg, mean of 3 animals, read-out: Cmax
[13] = male, ICR, mouse, plasma, iv, 2 mg/kg, ICR mice, IV 2 mg/kg, mean of 3 animals, read-out: Tmax
[14] = male, ICR, mouse, plasma, iv, 2 mg/kg, ICR mice, IV 2 mg/kg, mean of 3 animals, read-out: t1/2 (converted)
[15] = male, ICR, mouse, plasma, po, 5 mg/kg, ICR mice, PO 5 mg/kg, individual animal
[16] = male, ICR, mouse, plasma, po, 5 mg/kg, ICR mice, PO 5 mg/kg, individual animal, read-out: AUC(0-t)
[17] = male, ICR, mouse, plasma, po, 5 mg/kg, ICR mice, PO 5 mg/kg, individual animal, read-out: Cmax
[18] = male, ICR, mouse, plasma, po, 5 mg/kg, ICR mice, PO 5 mg/kg, individual animal, read-out: Tmax
[19] = male, ICR, mouse, plasma, po, 5 mg/kg, ICR mice, PO 5 mg/kg, individual animal, read-out: t1/2 (converted)
[20] = male, ICR, mouse, plasma, po, 5 mg/kg, ICR mice, PO 5 mg/kg, mean of 3 animals
[21] = male, ICR, mouse, plasma, po, 5 mg/kg, ICR mice, PO 5 mg/kg, mean of 3 animals, read-out: AUC(0-t)
[22] = male, ICR, mouse, plasma, po, 5 mg/kg, ICR mice, PO 5 mg/kg, mean of 3 animals, read-out: Cmax
[23] = male, ICR, mouse, plasma, po, 5 mg/kg, ICR mice, PO 5 mg/kg, mean of 3 animals, read-out: Tmax
[24] = male, ICR, mouse, plasma, po, 5 mg/kg, ICR mice, PO 5 mg/kg, mean of 3 animals, read-out: t1/2 (converted)
[25] = male, ICR, mouse, plasma, po, 5 mg/kg, oral intragastric administration 5 mg/kg, read-out: AUC0-t
[26] = male, ICR, mouse, plasma, po, 5 mg/kg, oral intragastric administration 5 mg/kg, read-out: half-life (converted)

T1 sequence (Q00987 whole entry): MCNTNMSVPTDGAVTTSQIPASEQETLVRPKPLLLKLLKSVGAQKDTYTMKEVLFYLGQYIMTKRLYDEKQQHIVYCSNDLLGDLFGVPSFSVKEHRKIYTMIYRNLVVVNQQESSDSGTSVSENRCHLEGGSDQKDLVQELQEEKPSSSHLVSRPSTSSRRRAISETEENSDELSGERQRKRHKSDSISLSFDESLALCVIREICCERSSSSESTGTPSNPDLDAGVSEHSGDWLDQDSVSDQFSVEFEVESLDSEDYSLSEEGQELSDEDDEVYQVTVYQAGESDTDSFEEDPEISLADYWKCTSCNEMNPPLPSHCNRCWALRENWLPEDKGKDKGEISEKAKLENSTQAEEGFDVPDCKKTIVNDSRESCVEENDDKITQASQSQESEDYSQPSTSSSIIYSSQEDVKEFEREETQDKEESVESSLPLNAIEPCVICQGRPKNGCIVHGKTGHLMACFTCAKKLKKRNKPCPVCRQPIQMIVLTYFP

Structure (SMILES): COc1nc(C2CC2)ncc1-c1nc2c(n1C(C)C)[C@@]1(C(=O)Nc3cc(Cl)ccc31)N(c1cc(Cl)ccc1C)C2=O [Example S-121, (S)-6-chloro-5′-(5-chloro-2-methylphenyl)-2′-(2-cyclopropyl-4-methoxypyrimidin-5-yl)-3′-isopropyl-3′H-spiro[dihydroindole-3,4′-pyrrolo[3,4-d]imidazole]-2,6′(5′H)-dione]
- IC50 (MDM2): 3.35 nM
- IC50 [1]: 67 nM
- AUC(0-t) [2, 3]: 26953.62 ng·h/mL and 24572.30 ng·h/mL
- AUC(0-∞) [2, 3]: 27749.72 ng·h/mL and 25488.79 ng·h/mL
- CL [2, 3]: 1.20 mL/min/kg and 1.31 mL/min/kg
- Cmax [2, 3]: 3576.94 ng/mL and 3887.60 ng/mL
- MRT(0-t) [2, 3]: 5.04 h and 5.26 h
- MRT(0-∞) [2, 3]: 5.79 h and 6.22 h
- Vz [2, 3]: 0.53 L/kg and 0.62 L/kg
- t1/2 [2, 3]: 5.09 h and 5.50 h
- AUC(0-t) [2, 4]: 43063.09 ng·h/mL and 40782.54 ng·h/mL
- AUC(0-∞) [2, 4]: 43407.01 ng·h/mL and 41032.91 ng·h/mL
- Cmax [2, 4]: 4835.52 ng/mL and 4714.57 ng/mL
- MRT(0-t) [2, 4]: 5.27 h and 5.40 h
- MRT(0-∞) [2, 4]: 5.45 h and 5.54 h
- Tmax [2, 4]: 4.00 h
- t1/2 [2, 4]: 3.34 h and 3.14 h
- AUC(0-inf) [2, 5]: 29400 ng·h/mL
- clearance [2, 5]: 1.14 mL/min/kg
- AUC(0-t) [2, 6]: 28400 ng·h/mL
- Cmax [2, 7]: 3350 ng/mL
- MRT last [2, 5]: 5.15 h
- MRT inf [2, 5]: 6.03 h
- Tmax [2, 8]: 0.08 h
- Vd [2, 5]: 0.52 L/kg
- half-life [2, 9]: 5.25 h
- AUC(0-inf) [2, 10]: 27500 ng·h/mL
- clearance [2, 10]: 1.21 mL/min/kg
- AUC(0-t) [2, 11]: 26600 ng·h/mL
- Cmax [2, 12]: 3600 ng/mL
- MRT last [2, 10]: 5.15 h
- MRT inf [2, 10]: 6.01 h
- Tmax [2, 13]: 0.083 h
- Vd [2, 10]: 0.56 L/kg
- half-life [2, 14]: 5.28 h
- AUC(0-inf) [2, 15]: 40300 ng·h/mL
- AUC(0-t) [2, 16]: 40100 ng·h/mL
- Cmax [2, 17]: 4920 ng/mL
- MRT last [2, 15]: 4.96 h
- MRT inf [2, 15]: 5.08 h
- Tmax [2, 18]: 2 h
- half-life [2, 19]: 3.09 h
- AUC(0-inf) [2, 20]: 41600 ng·h/mL
- AUC(0-t) [2, 21]: 41300 ng·h/mL
- Cmax [2, 22]: 4820 ng/mL
- MRT last [2, 20]: 5.21 h
- MRT inf [2, 20]: 5.36 h
- Tmax [2, 23]: 3.33 h
- half-life [2, 24]: 3.19 h
- AUC(0-t) [2, 25]: 41300 ng·h/mL
- half-life [2, 26]: 3.19 h
- bioavailability ([2]; male, mouse, plasma, ICR mice): 62%

Structure (SMILES): COc1cc(OC)c(-c2nc3c(n2C(C)C)[C@@]2(C(=O)Nc4cc(Cl)ccc42)N(c2cc(Cl)cnc2C)C3=O)cn1 [Example S-131, (S)-6-chloro-5′-(5-chloro-2-methylpyridin-3-yl)-2′-(4,6-dimethoxypyridin-3-yl)-3′-isopropyl-3′H-spiro[dihydroindole-3,4′-pyrrolo[3,4-d]imidazole]-2,6′(5′H)-dione]
- IC50 (MDM2): 1.17 nM
- IC50 [1]: 46.3 nM
- AUC(0-t) [2, 3]: 1579.23 ng·h/mL and 1776.79 ng·h/mL
- AUC(0-∞) [2, 3]: 1594.10 ng·h/mL and 1788.59 ng·h/mL
- CL [2, 3]: 20.91 mL/min/kg and 18.64 mL/min/kg
- Cmax [2, 3]: 2021.33 ng/mL and 1997.01 ng/mL
- MRT(0-t) [2, 3]: 0.90 h and 0.94 h
- MRT(0-∞) [2, 3]: 0.96 h and 0.98 h
- Vz [2, 3]: 1.78 L/kg and 1.45 L/kg
- t1/2 [2, 3]: 0.98 h and 0.90 h
- AUC(0-t) [2, 4]: 5902.77 ng·h/mL and 6839.45 ng·h/mL
- AUC(0-∞) [2, 4]: 6003.28 ng·h/mL and 7052.50 ng·h/mL
- Cmax [2, 4]: 1853.01 ng/mL and 1794.96 ng/mL
- MRT(0-t) [2, 4]: 2.27 h and 2.45 h
- MRT(0-∞) [2, 4]: 2.40 h and 2.68 h
- t1/2 [2, 4]: 1.28 h and 1.47 h
- AUC(0-inf) [2, 5]: 1260 ng·h/mL
- clearance [2, 5]: 26.4 mL/min/kg
- AUC(0-t) [2, 6]: 1260 ng·h/mL
- Cmax [2, 7]: 1780 ng/mL
- MRT last [2, 5]: 0.71 h
- MRT inf [2, 5]: 0.73 h
- Tmax [2, 8]: 0.08 h
- Vd [2, 5]: 1.73 L/kg
- half-life [2, 9]: 0.76 h
- AUC(0-inf) [2, 10]: 1550 ng·h/mL
- clearance [2, 10]: 22 mL/min/kg
- AUC(0-t) [2, 11]: 1540 ng·h/mL
- Cmax [2, 12]: 1930 ng/mL
- MRT last [2, 10]: 0.85 h
- MRT inf [2, 10]: 0.89 h
- Tmax [2, 13]: 0.083 h
- Vd [2, 10]: 1.65 L/kg
- half-life [2, 14]: 0.88 h
- AUC(0-inf) [2, 15]: 3770 ng·h/mL
- AUC(0-t) [2, 16]: 3740 ng·h/mL
- Cmax [2, 17]: 1440 ng/mL
- MRT last [2, 15]: 1.9 h
- MRT inf [2, 15]: 1.95 h
- Tmax [2, 18]: 1 h
- half-life [2, 19]: 1.03 h
- AUC(0-inf) [2, 20]: 5610 ng·h/mL
- AUC(0-t) [2, 21]: 5500 ng·h/mL
- Cmax [2, 22]: 1700 ng/mL
- MRT last [2, 20]: 2.21 h
- MRT inf [2, 20]: 2.34 h
- Tmax [2, 23]: 1 h
- half-life [2, 24]: 1.26 h
- AUC(0-t) [2, 25]: 5500 ng·h/mL
- half-life [2, 26]: 1.26 h
- bioavailability ([2]; male, mouse, plasma, ICR mice): 143%
